How the values were obtained:
[1] = target: T1, β-lactamase produced by Enterobacter cloacae IFO 12937 (Enterobacter cloacae, UniProt P05364); experiment: Inhibitor concentration required to inhibit β-lactamase (cephalosporinase) activity by 50%, micro-iodometric method; format: biochemical; conditions: Enterobacter cloacae IFO 12937 cephalosporinase; 0.05M phosphate buffer pH 7, 30° C., 10 minutes preincubation; cephalothin or ampicillin 0.1 mM; read-out: I50 (converted)
T1 construct: The β-lactamase produced by Enterobacter cloacae IFO 12937; endogenous in cells; host or cells: Enterobacter cloacae IFO 12937
Description: (§1) Determination of the inhibitor concentration required to inhibit the enzyme activity by 50%
(§2) The β-lactamase produced by Enterobacter cloacae IFO 12937 is used as a typical example of cephalosporinase, and that produced by Staphylococcus aureus 1840 as typical example of penicillinase. The β-lactamase in incubated is 0.05M phosphate buffer (pH 7) with an appropriate dilution of an inhibitor preparation at 30° C. for 10 minutes. Cephalothin or ampicillin is then added in an amount sufficient to produce a final concentration of 0.1 mM, and the enzymatic reaction is allowed to proceed for 10 minutes. The enzyme activity is determined by the micro-iodometric method [Journal of general Microbiology, vol. 33, page 121 (1963)]. Hereinafter, the inhibitor concentration required to inhibit the enzyme activity by 50% is expressed as I50. The I50 values for Enterobacter cloaceae are shown in Table 1, and the I50 values for Staphylococcus aureus in Table 2.

[2] = test system: Citrobacter freundii TN 512; experiment: Synergy with Cefotiam, agar dilution MIC; format: cell-based; conditions: Table 4, 1 μg/ml test compound in agar, inoculum 10^8 per ml, 18 hours
Description: (§3) The inoculum concentration is 10^8 per ml, and the medium is prepared by using Trypticase® soy agar (Becton Dickinson & Company, USA).

Proteus morganii TN 387 = experiment: Synergy with Cefotiam, agar dilution MIC; format: cell-based; conditions: Table 4, 1 μg/ml test compound in agar, inoculum 10^8 per ml, 18 hours
Description: as §3

Proteus vulgaris GN 5297 = experiment: Synergy with Cefotiam, agar dilution MIC; format: cell-based; conditions: Table 4, 1 μg/ml test compound in agar, inoculum 10^8 per ml, 18 hours
Description: as §3

[3] = test system: Enterobacter cloacae IFO 12937; experiment: Synergy with Cefotiam, agar dilution MIC; format: cell-based; conditions: Table 4, 1 μg/ml test compound in agar, inoculum 10^8 per ml, 18 hours
Description: as §3

[4] = test system: Citrobacter freundii GN 1706; experiment: Synergy with Cefotiam, agar dilution MIC; format: cell-based; conditions: Table 4, 1 μg/ml test compound in agar, inoculum 10^8 per ml, 18 hours
Description: as §3

[5] = target: T2, β-lactamase produced by Staphylococcus aureus 1840 (Staphylococcus aureus, UniProt P00807); experiment: Inhibitor concentration required to inhibit β-lactamase (penicillinase) activity by 50%, micro-iodometric method; format: biochemical; conditions: Staphylococcus aureus 1840 penicillinase; 0.05M phosphate buffer pH 7, 30° C., 10 minutes preincubation; cephalothin or ampicillin 0.1 mM; read-out: I50 (converted)
T2 construct: endogenous in cells; host or cells: Staphylococcus aureus 1840
Description: as §1, §2

T2 sequence (P00807 25-281): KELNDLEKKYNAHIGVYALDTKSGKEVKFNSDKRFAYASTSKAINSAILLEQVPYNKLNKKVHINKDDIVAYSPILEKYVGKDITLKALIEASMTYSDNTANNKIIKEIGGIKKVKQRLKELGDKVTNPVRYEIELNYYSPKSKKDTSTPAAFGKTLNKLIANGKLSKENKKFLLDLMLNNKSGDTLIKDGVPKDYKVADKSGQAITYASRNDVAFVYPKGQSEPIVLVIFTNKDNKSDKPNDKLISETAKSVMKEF
T1 sequence (P05364 21-381): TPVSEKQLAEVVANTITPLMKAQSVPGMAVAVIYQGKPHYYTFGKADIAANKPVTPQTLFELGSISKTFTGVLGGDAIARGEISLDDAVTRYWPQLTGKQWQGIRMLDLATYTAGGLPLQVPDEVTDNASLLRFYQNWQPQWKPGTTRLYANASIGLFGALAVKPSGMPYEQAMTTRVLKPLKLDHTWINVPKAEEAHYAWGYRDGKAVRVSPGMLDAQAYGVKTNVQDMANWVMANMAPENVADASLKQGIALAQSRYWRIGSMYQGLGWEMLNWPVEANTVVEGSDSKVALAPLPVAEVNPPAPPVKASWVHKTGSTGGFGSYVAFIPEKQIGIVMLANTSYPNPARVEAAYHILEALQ

SMILES	IC50 [1] [nM]	also measured
COc1cccc(OC)c1C(=O)NC1CN(S(=O)(=O)O)C1=O (stereo not shown)	7100	–
CON=C(C(=O)NC1CN(S(=O)(=O)O)C1=O)c1nc(NC(=O)CCl)sc1Cl (stereo not shown)	622	–
CON=C(C(=O)NC1CN(S(=O)(=O)O)C1=O)c1nc(N)sc1Cl (stereo not shown)	2960	–
Cc1ccc(SN=C(C(=O)NC2CN(S(=O)(=O)O)C2=O)c2ccccc2)cc1 (stereo not shown)	1250	–
CCN1CCN(C(=O)NC(C(=O)NC2CN(S(=O)(=O)O)C2=O)C2=C(Cl)CCCC2)C(=O)C1=O (stereo not shown)	5680	–
CC(C)(C)OC(=O)C(C)(C)ON=C(C(=O)NC1CN(S(=O)(=O)[O-])C1=O)c1csc(NS(=O)(=O)[O-])n1.[Na+].[Na+] (stereo not shown)	9.14	MIC of Cefotiam with 1 μg/ml of Compound [2]: 0.39; MIC of Cefotiam with 1 μg/ml of Compound (Proteus morganii TN 387): 0.2; MIC of Cefotiam with 1 μg/ml of Compound (Proteus vulgaris GN 5297): < 0.2; MIC of Cefotiam with 1 μg/ml of Compound [3]: 0.39; MIC of Cefotiam with 1 μg/ml of Compound [4]: 3.13
CC(C)ON=C(C(=O)NC1CN(S(=O)(=O)O)C1=O)c1csc(N)n1 (stereo not shown)	50.1	–
COC1(NC(=O)C(N=[N+]=[N-])c2ccccc2)CN(S(=O)(=O)O)C1=O (stereo not shown)	954	–
COc1ccc(COC(=O)C(C(=O)NC2(OC)CN(S(=O)(=O)O)C2=O)c2ccc(O)cc2)cc1 (stereo not shown)	387	–
O=C(NC1CN(S(=O)(=O)O)C1=O)C(=O)c1ccccc1 (stereo not shown)	–	IC50 [5]: 12500 nM
O=C(NC1CN(S(=O)(=O)O)C1=O)C(Br)c1ccccc1 (stereo not shown)	–	IC50 [5]: 493 nM
[N-]=[N+]=NC(C(=O)NC1CN(S(=O)(=O)O)C1=O)c1ccccc1 (stereo not shown)	–	IC50 [5]: 144 nM
[N-]=[N+]=NC(C(=O)NC1CN(S(=O)(=O)O)C1=O)c1cccc(Cl)c1 (stereo not shown)	–	IC50 [5]: 147 nM
CCCCCCCCN1CCN(C(=O)N[C@@H](C(=O)NC2CN(S(=O)(=O)O)C2=O)c2cccs2)C(=O)C1=O (stereo partly drawn) [Compound 1, Sodium 3-[D-2-(4-n-octyl-2,3-dioxo-1-piperazinecarboxamido)-2-thienylacetamido]-2-oxoazetidine-1-sulfoante]	5020	–
CCCCCCCCN1CCN(C(=O)NC(C(=O)NC2(OC)CN(S(=O)(=O)O)C2=O)c2cccs2)C(=O)C1=O (stereo not shown) [Compound 2]	78.3	–
COC1(NC(=O)[C@H](NC(=O)N2CCN(N=Cc3ccco3)C2=O)c2ccccc2)CN(S(=O)(=O)O)C1=O (stereo partly shown) [Compound 3]	617	MIC of Cefotiam with 1 μg/ml of Compound [2]: 0.39; MIC of Cefotiam with 1 μg/ml of Compound (Proteus morganii TN 387): 0.39; MIC of Cefotiam with 1 μg/ml of Compound (Proteus vulgaris GN 5297): 400; MIC of Cefotiam with 1 μg/ml of Compound [3]: 3.13; MIC of Cefotiam with 1 μg/ml of Compound [4]: 12.5
COC1(NC(=O)C(C(=O)OCc2ccccc2)c2ccccc2)CN(S(=O)(=O)O)C1=O (stereo not shown) [Compound 4]	89.2	–
COC1(NC(=O)C(C(=O)O)c2ccccc2)CN(S(=O)(=O)O)C1=O (stereo not shown) [Compound 5]	391	–
CNC(=O)CC(NC(=O)OCc1ccccc1)C(=O)NC1(OC)CN(S(=O)(=O)O)C1=O (stereo not shown) [Compound 6]	2400	–
CCN1CCN(C(=O)N[C@H](Cc2ccccc2)C(=O)NC2(OC)CN(S(=O)(=O)O)C2=O)C(=O)C1=O (stereo partly shown) [Compound 7]	2150	–
COC1(NC(=O)[C@@H](C)NC(=O)OCc2ccccc2)CN(S(=O)(=O)O)C1=O (stereo partly shown) [Compound 8]	7970	–
CCN1CCN(C(=O)NC(C(=O)NC2CN(S(=O)(=O)O)C2=O)C2=CCCCC2)C(=O)C1=O (stereo not shown) [Compound 10]	4880	–
CCN1CCN(C(=O)NC(C(=O)NC2(OC)CN(S(=O)(=O)O)C2=O)c2ccccc2)C(=O)C1=O (stereo not shown) [Compound 11]	523	–
CON=C(C(=O)NC1(OC)CN(S(=O)(=O)O)C1=O)c1csc(N)n1 (stereo not shown) [Compound 13]	712	–

SMILES	IC50 [1] [nM]	also measured
CON=C(C(=O)NC1(OC)CN(S(=O)(=O)O)C1=O)c1csc(NC(=O)CCl)n1 (stereo not shown) [Compound 14]	658	–
O=C(NC1CN(S(=O)(=O)O)C1=O)C(OS(=O)(=O)O)c1ccccc1 (stereo not shown) [Compound 15]	9460	–
CON=C(C(=O)NC1CN(S(=O)(=O)O)C1=O)c1ccccc1 (stereo not shown) [Compound 16]	15300	–
COc1cccc(OC)c1C(=O)NC1(OC)CN(S(=O)(=O)O)C1=O (stereo not shown) [Compound 18]	5000	–
CC(C)ON=C(C(=O)NC1CN(S(=O)(=O)O)C1=O)c1csc(N)n1 (stereo not shown) [Compound 23]	53	–
COC1(NC(=O)C(C)NC(=O)C(CS(=O)(=O)NS(=O)(=O)O)NC(=O)OCc2ccccc2)CN(S(=O)(=O)O)C1=O (stereo not shown) [Compound 24]	1200	–
Cc1onc(-c2c(Cl)cccc2Cl)c1C(=O)N[C@@H](C(=O)NC1CN(S(=O)(=O)O)C1=O)c1cccs1 (stereo partly drawn) [Compound 25, Sodium 3-[D-2-[[3-(2,6-dichlorophenyl)-5-methylisoxazol-4-yl]-carboxamido]-2-thienylacetamido]-2-oxoazetidine-1-suflonate]	6440	IC50 [5]: 715 nM
COC1(NC(=O)OCc2ccccc2)CN(S(=O)(=O)O)C1=O (stereo not shown) [Compound 30, Sodium 3-benzyloxycarboxamido-3-methoxy-2-oxoazetidine-1-sulfonate]	15100	–
O=C(NC1CN(S(=O)(=O)O)C1=O)C(c1cccs1)N1C(=O)c2ccccc2C1=O (stereo not shown) [Compound 34, Sodium 3-(2-phthalimido-2-thienylacetamido)-2-oxoazetidine-1-sulfonate]	873	–
COC1(NC(=O)C(=NOC(C)C)c2csc(N)n2)CN(S(=O)(=O)O)C1=O (stereo not shown) [Compound 36, Sodium 3-[2-(2-aminothiazol-4-yl)-2-(1-methylethoxyimino)actamido]-3-methoxy-2-oxoazetidine-1-sulfonate]	56.5	–
COC1(NC(=O)[C@H](NC(=O)N2CCN(C3CCCCC3)C(=O)C2=O)c2cccs2)CN(S(=O)(=O)O)C1=O (stereo partly drawn) [Compound 37, Sodium 3-[D-2-(4-cyclohexyl-2,3-dioxo-1-pipeadinecarboxamido)-2-thienylacetamido]-3-methoxy-2-oxoazetidine-1-sulfonate]	215	–
COC1(NC(=O)[C@H](NC(=O)N2CCN(CC(=O)N3CCCCC3)C(=O)C2=O)c2cccs2)CN(S(=O)(=O)O)C1=O (stereo partly drawn) [Compound 38, Sodium 3-methoxy-3-[D-2-(4-piperidinecarbonylmethyl-2,3-dioxo-1-piperadinecarboxamido)-2-thienylacetamido]-2-oxoazetidine-1-sulfonate]	130	–
COC1(NC(=O)[C@H](NC(=O)N2CCN(c3ccccc3)C(=O)C2=O)c2cccs2)CN(S(=O)(=O)O)C1=O (stereo partly drawn) [Compound 39, Sodium 3-methoxy-3-[D-2-(4-phenyl-2,3-dioxo-1-piperadinecarboxamido)-2-thienylacetamido]-2-oxoazetidine-1-sulfonate]	127	–
COC1(NC(=O)[C@H](NC(=O)N2CCN(C(C)(C)C)C(=O)C2=O)c2cccs2)CN(S(=O)(=O)O)C1=O (stereo partly drawn) [Compound 40, Sodium 3-[D-2-(4-t-butyl-2,3-dioxo-1-piperadinecarboxamido)-2-thienylacetamido]-3-methoxy-2-oxoazetidine-1-sulfonate]	124	–
COC1(NC(=O)[C@H](NC(=O)N2CCN(CC=C(C)C)C(=O)C2=O)c2cccs2)CN(S(=O)(=O)O)C1=O (stereo partly drawn) [Compound 41, Sodium 3-[D-2-[4-(3-methyl-2-butenyl)-2,3-dioxo-1-piperadinecarboxamido]-2-thienylacetamido]-3-methoxy-2-oxoazetidine-1-sulfonate]	120	–
CC(C)(ON=C(C(=O)NC1CN(S(=O)(=O)O)C1=O)c1csc(NC(c2ccccc2)(c2ccccc2)c2ccccc2)n1)C(=O)O (stereo not shown) [Compound 43, Disodium 3-[2-[(1-carboxy-1-methylethoxy)imino]-2-(2-tritylaminothiazol-4-yl)acetamido]-2-oxoazetidine-1-sulfonate]	4820	–
CCN1C(=O)C(=O)N(C(=O)N[C@@H](C(=O)NC2CN(S(=O)(=O)O)C2=O)c2cccs2)C[C@@H]1C (stereo partly drawn) [Compound 44, Sodium 3-[D-2-(4-ethyl-5(S)-methyl-2,3-dioxo-2,3-dioxo-1-piperazinecarboxamido)-2-thienylacetamido]-2-oxoazetidine-1-sulfonate]	–	IC50 [5]: 2460 nM
O=C(NC1CN(S(=O)(=O)O)C1=O)[C@H](NC(=O)N1CCNC1=O)c1cccs1 (stereo partly drawn) [Compound 45, Sodium 3-[D-2-[(2-oxoimidazolidin-1-yl)carboxamido]-2-thienylacetamido]-2-oxoazetidine-1-sulfonate]	–	IC50 [5]: 5750 nM
O=C(CSc1c(Cl)cccc1Cl)N[C@@H](C(=O)NC1CN(S(=O)(=O)O)C1=O)c1ccccc1 (stereo partly shown) [Compound 46]	–	IC50 [5]: 9650 nM
Nc1nc(CC(=O)N[C@@H](C(=O)NC2CN(S(=O)(=O)O)C2=O)c2ccccc2)cs1 (stereo partly shown) [Compound 47]	–	IC50 [5]: 11400 nM
O=C(NC(CS(=O)(=O)NC1CN(S(=O)(=O)O)C1=O)C(=O)OCc1ccccc1)OCc1ccccc1 (stereo not shown) [Compound 48]	–	IC50 [5]: 3140 nM
CS(=O)(=O)NC1CN(S(=O)(=O)O)C1=O (stereo not shown) [Compound 52]	–	IC50 [5]: 14300 nM
CCOC(=O)C(C(=O)c1ccccc1)=C1SC(C(=O)NC2CN(S(=O)(=O)O)C2=O)S1 (stereo not shown) [Compound 54]	–	IC50 [5]: 2540 nM

Reference: patent publication US4725591A, “β-lactamase inhibitory composition” (Takeda Chemical Industries, Ltd., priority 1980, dated 1988)
